This is an account of results in US20230271949A1, “GLP-1R MODULATING COMPOUNDS” (ASCLETIS BIOSCIENCE CO., LTD., priority 2022, published 2023).

Assay [1] concerns the target T1, GLP-1R (Homo sapiens, UniProt P43220). Kind of assay: Tag-lite binding assay (competition with GLP-1 receptors red agonist). Particulars: for IC50: HEK293 GLP-1 cells labeled with SNAP-Lumi4-Tb, red agonist 4.917 nM, 23° C., 2 h; for Ki: calculated from sample IC50 and red agonist Kd. As for the experimental part:
B. Tag-Lite Binding Assay
The cell line was constructed by WuXi.
10) Dispense cells into cell plate (1.8 M cells/well in 2 ml medium of 6-well plate, total 4 wells).
Second Day: Tag-Lite Binding Assay
3) The cell culture medium is removed from the 6-well plate and then 1 mL of Tag-lite SNAP-Lumi4-Tb diluted in Tag-lite labeling medium are added gently on the cells.
7) The testing compounds and reference compound are serially diluted with 3-fold, 10 points using Echo, then transfer 100 nL compounds to the assay plate.
8) Add the labeled cells to each well according to the plate map, 10000 cells/10 uL/well. Centrifuge the plate at 1000 rpm for 1 min.
9) Incubate the plate at 23° C., 30 min.
10) Add 50 nL of red agonist (final conc.: 4.917 nM) to destination plate using Echo.
11) Incubate the plate at 23° C. for 2 h.
12) Read the plate on an HTRF® compatible reader (at 665 nm and 620 nm).
% Inhibition=100%−(Ratio−LC)/(HC−LC)*100%
HC: The average ratio of adding DMSO wells
LC: The average ratio of adding the top concentration of reference compounds wells
b) The “log (inhibitor) vs. response—Variable slope” model in GraphPad Prism 5.0 was used to fit the dose-response curve of each sample. The sample concentration (x) and its corresponding % Inhibition data (y) were substituted into the model. The sample concentration (abscissa) was x=log(x) transformed. The transformed xy was used as the sample curve to obtain the IC50.
c) Calculate the sample Ki according to the sample IC50 and red agonist Kd. S in the formula is the actual used concentration of red agonist.

Assay [2] deals with T1, GLP-1R. Put plainly: GLP-1R agonist cAMP stimulation assay (HTRF cAMP). It is filed as cell-based. Particulars: HEK293 cell line expressing GLP-1 target; HTRF cAMP agonist mode, 30 min at RT. Put shortly: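 GLP-1R-expressing cells were stimulated with 10-point, 3-fold compound dilutions for 30 min at RT; HTRF cAMP detection reagents were then added for 60 min and the 665/615 ratio read. Ratios were converted to cAMP via a standard curve and % activity scaled between DMSO and top-concentration GLP-1(7-37) reference wells.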

T1 sequence (P43220 24-463): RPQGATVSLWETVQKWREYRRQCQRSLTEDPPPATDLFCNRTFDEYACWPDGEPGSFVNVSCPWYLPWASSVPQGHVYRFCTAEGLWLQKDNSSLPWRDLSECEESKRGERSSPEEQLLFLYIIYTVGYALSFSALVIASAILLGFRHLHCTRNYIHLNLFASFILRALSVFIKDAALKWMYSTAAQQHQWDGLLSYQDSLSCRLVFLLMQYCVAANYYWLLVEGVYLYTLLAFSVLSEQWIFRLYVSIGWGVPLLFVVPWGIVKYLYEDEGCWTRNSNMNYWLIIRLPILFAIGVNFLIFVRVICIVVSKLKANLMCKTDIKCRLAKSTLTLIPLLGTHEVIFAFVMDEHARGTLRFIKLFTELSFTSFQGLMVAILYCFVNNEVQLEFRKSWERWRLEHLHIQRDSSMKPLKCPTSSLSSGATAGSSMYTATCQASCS

For the molecule `O=C(NCC(=O)N1C[C@H](O)C[C@H]1C(=O)O)c1ccc2c(c1)nc(CN1CCC(c3cccc(OCc4ccc(Cl)cc4F)n3)CC1)n2C[C@@H]1CCO1` [Compound 2, (2S,4R)-1-((2-((4-(6-((4-chloro-2-fluorobenzyl)oxy)pyridin-2-yl)piperidin-1-yl)methyl)-1-(((S)-oxetan-2-yl)methyl)-1H-benzo[d]imidazole-5-carbonyl)glycyl)-4-hydroxypyrrolidine-2-carboxylic acid], at GLP-1R [1], the IC50 came out at 345 nM and the Ki was 165 nM. It took 0.32 nM to reach a half-maximal effect at GLP-1R [2] (EC50).
As for `Cc1n[nH]c2ccc(NC(=O)c3ccc4c(c3)nc(CN3CC=C(c5cccc(OCc6ccc(Cl)cc6F)n5)CC3)n4C[C@@H]3CCO3)cc12` [Compound 3, (S)-2-((6-((4-chloro-2-fluorobenzyl)oxy)-3′,6′-dihydro-[2,4′-bipyridin]-1′(2′H)-yl)methyl)-N-(3-methyl-1H-indazol-5-yl)-1-(oxetan-2-ylmethyl)-1H-benzo[d]imidazole-5-carboxamide], on GLP-1R [1], the half-inhibitory concentration (IC50) came to 1750 nM and the Ki is 876 nM. This molecule showed a half-maximal effective concentration (EC50) at GLP-1R [2] of 0.56 nM.
Turning to `Cc1n[nH]c2ccc(NC(=O)c3ccc4c(c3)nc(CN3CC=C(c5cccc6c5O[C@@](C)(c5ccc(Cl)cc5F)O6)CC3)n4C[C@@H]3CCO3)cc12` [Compound 5, 2-((4-((S)-2-(4-chloro-2-fluorophenyl)-2-methylbenzo[d][1,3]dioxol-4-yl)-3,6-dihydropyridin-1(2H)-yl)methyl)-N-(3-methyl-1H-indazol-5-yl)-1-(((S)-oxetan-2-yl)methyl)-1H-benzo[d]imidazole-5-carboxamide], on GLP-1R [1], the IC50 came out at 1700 nM and the Ki was 911 nM. Further, a half-maximal response on GLP-1R [2] (EC50) required 0.12 nM.
On the same counts, the results for `O=C(NCC(=O)N1CC(F)(F)C[C@H]1C(=O)O)c1ccc2c(c1)nc(CN1CCC(c3cccc(OCc4ccc(Cl)cc4F)n3)CC1)n2C[C@@H]1CCO1` [Compound 62] are 2630 nM, 1320 nM and 0.51 nM.
In the case of `Cc1cc(NC(=O)c2ccc3c(c2)nc(CN2CCC(c4cccc(OCc5ccc(Cl)cc5F)n4)CC2)n3C[C@@H]2CCO2)cc2cn[nH]c12` [Compound 80], at GLP-1R [1], the IC50 is 2320 nM and the inhibition constant (Ki) is 1160 nM. This molecule also gave an EC50 at GLP-1R [2] of 2.05 nM.
The matching figures for `O=C(Nc1ccc2c(c1)nc(CN1CCC(c3cccc(OCc4ccc(Cl)cc4F)n3)CC1)n2C[C@@H]1CCO1)c1ccc2[nH]c(=O)[nH]c2c1` [Compound 85]: 143 nM, 71.7 nM and 0.41 nM.
With `Cc1n[nH]c2ccc(NC(=O)c3ccc4c(c3)nc(CN3CCC(c5cccc(OCc6ccc(Cl)cc6F)n5)CC3)n4C[C@@H]3CCO3)cc12` [Compound 88], on GLP-1R [1], the 50% inhibitory concentration (IC50) was 1840 nM and the Ki is 920 nM. The molecule further showed an EC50 on GLP-1R [2] of 4.45 nM.
As to `O=C(Nc1ccc2[nH]c(=O)[nH]c2c1)c1ccc2c(c1)nc(CN1CCC(c3cccc(OCc4ccc(Cl)cc4F)n3)CC1)n2C[C@@H]1CCO1` [Compound 90], at GLP-1R [1], the IC50 worked out at 1900 nM and the Ki is 950 nM. Moreover, at GLP-1R [2], the EC50 came out at 1.59 nM.
On the same counts, the results for `Cc1n[nH]c2c(C)cc(NC(=O)c3ccc4c(c3)nc(CN3CCC(c5cccc(OCc6ccc(Cl)cc6F)n5)CC3)n4C[C@@H]3CCO3)cc12` [Compound 100] are 1260 nM, 893 nM and 0.98 nM.
`O=C(Nc1ccc2c(c1)C1(CC1)C(=O)N2)c1ccc2c(c1)nc(CN1CCC(c3cccc(OCc4ccc(Cl)cn4)n3)CC1)n2C[C@@H]1CCO1` [Compound 101]: on GLP-1R [1], the IC50 amounted to 1280 nM and the Ki was 641 nM. The same molecule registered an EC50 at GLP-1R [2] of 0.75 nM.
For the molecule `Cc1n[nH]c2c(F)cc(NC(=O)c3ccc4c(c3)nc(CN3CCC(c5cccc(OCc6ccc(Cl)cc6F)n5)CC3)n4C[C@@H]3CCO3)cc12` [Compound 103], at GLP-1R [1], the 50% inhibitory concentration (IC50) was 1550 nM and the Ki is 885 nM. The EC50 at GLP-1R [2] turned out to be 0.83 nM.
Regarding `Cc1cc(NC(=O)c2ccc3c(c2)nc(CN2CCC(c4cccc(OCc5ccc(Cl)cc5F)n4)CC2)n3C[C@@H]2CCO2)cc2c1NC(=O)C21CC1` [Compound 105], at GLP-1R [1], the IC50 came out at 1940 nM and the Ki was 1000 nM. On GLP-1R [2], the EC50 was found to be 0.78 nM.
The matching figures for `Cc1n[nH]c2c(F)cc(NC(=O)c3ccc4c(c3)nc(CN3CCC(c5cccc(OCc6ccc(C#N)cc6F)n5)CC3)n4C[C@@H]3CCO3)cc12` [Compound 126]: 1400 nM, 806 nM and 0.18 nM.
In the case of `Cc1n[nH]c2c(C)cc(NC(=O)c3ccc4c(c3)nc(CN3CCC(c5cccc(OCc6ccc(C#N)cc6F)n5)CC3)n4C[C@@H]3CCO3)cc12` [Compound 127], at GLP-1R [1], the half-maximal inhibitory concentration (IC50) amounted to 1250 nM and the Ki is 744 nM. The same molecule displayed a concentration giving a half-maximal response (EC50) at GLP-1R [2] of 0.15 nM.
On the same counts, the results for `Cc1cc(NC(=O)c2ccc3c(c2)nc(CN2CCC(c4cccc(OCc5ccc(C#N)cc5F)n4)CC2)n3C[C@@H]2CCO2)cc2cn[nH]c12` [Compound 134] are 1840 nM, 904 nM and 0.85 nM.
For `O=C(Nc1ccc2c(c1)nc(CN1CC=C(c3cccc(OCc4ccc(Cl)cc4F)n3)CC1)n2C[C@@H]1CCO1)c1ccc2[nH]c(=O)[nH]c2c1` [Compound 142], at GLP-1R [1], the IC50 came out at 2010 nM and the Ki is 1000 nM. Moreover, a half-maximal effect at GLP-1R [2] (EC50) was put at 0.21 nM.
For the molecule `Cc1n[nH]c2ccc(NC(=O)c3ccc4c(c3)nc(CN3CC=C(c5cccc(OCc6ccc(Cl)cn6)n5)CC3)n4C[C@@H]3CCO3)cc12` [Compound 145], on GLP-1R [1], the IC50 came out at 1920 nM and the Ki is 956 nM. In addition, the EC50 on GLP-1R [2] stood at 0.45 nM.
Regarding `O=C(Nc1ccc2[nH]c(=O)[nH]c2c1)c1ccc2c(c1)nc(CN1CC=C(c3cccc(OCc4ccc(Cl)cc4F)n3)CC1)n2C[C@@H]1CCO1` [Compound 147], on GLP-1R [1], the IC50 worked out at 1750 nM and the Ki is 841 nM. On GLP-1R [2], this molecule came in with a 50% effective concentration (EC50) of 0.68 nM.
On to `Cc1n[nH]c2c(C)cc(NC(=O)c3ccc4c(c3)nc(CN3CC=C(c5cccc(OCc6ccc(Cl)cc6F)n5)CC3)n4C[C@@H]3CCO3)cc12` [Compound 151], for which, at GLP-1R [1], the IC50 was 1050 nM and the inhibition constant Ki was 519 nM. At GLP-1R [2], this molecule returned an EC50 of 0.6 nM.
The matching figures for `Cc1n[nH]c2c(F)cc(NC(=O)c3ccc4c(c3)nc(CN3CC=C(c5cccc(OCc6ccc(Cl)cc6F)n5)CC3)n4C[C@@H]3CCO3)cc12` [Compound 153]: 1450 nM, 873 nM and 0.59 nM.
Take `Fc1cc(Cl)ccc1COc1cccc(C2=CCN(Cc3nc4cc(-c5nc(-c6cc(C(F)(F)F)[nH]n6)co5)ccc4n3C[C@@H]3CCO3)CC2)n1` [Compound 398]: on GLP-1R [2], the EC50 was 110 nM.
With `Fc1cc(Cl)ccc1COc1cccc(C2=CCN(Cc3nc4cc(-c5nc(-c6c[nH]c(C(F)(F)F)n6)co5)ccc4n3C[C@@H]3CCO3)CC2)n1` [Compound 399], the EC50 at GLP-1R [2] was greater than 10000 nM.
Turning to `O=C(NC1=Nc2nccn2C1)c1ccc2c(c1)nc(CN1CC=C(c3cccc(OCc4ccc(Cl)cc4F)n3)CC1)n2C[C@@H]1CCO1` [Compound 400], the EC50 on GLP-1R [2] is 104 nM.
The same measure, in the same setting: next, `O=C(Nc1cnn2[nH]ccc12)c1ccc2c(c1)nc(CN1CC=C(c3cccc(OCc4ccc(Cl)cc4F)n3)CC1)n2C[C@@H]1CCO1` [Compound 401]: 21.8 nM; `O=C(Nc1cc2[nH]ccc2s1)c1ccc2c(c1)nc(CN1CC=C(c3cccc(OCc4ccc(Cl)cc4F)n3)CC1)n2C[C@@H]1CCO1` [Compound 402]: 73.2 nM; `O=C(Nc1nc2[nH]cnc2s1)c1ccc2c(c1)nc(CN1CC=C(c3cccc(OCc4ccc(Cl)cc4F)n3)CC1)n2C[C@@H]1CCO1` [Compound 403]: 23.2 nM.
In the case of `O=C(Nc1nc2[nH]cnc2o1)c1ccc2c(c1)nc(CN1CC=C(c3cccc(OCc4ccc(Cl)cc4F)n3)CC1)n2C[C@@H]1CCO1` [Compound 404], the concentration for a half-maximal effect (EC50) at GLP-1R [2] came out at 19.8 nM.
`Cc1n[nH]c2c(C)cc(NC(=O)c3cc4c(nc(CN5CC=C(c6cccc(OCc7ccc(Cl)cc7F)n6)CC5)n4C[C@@H]4CCO4)s3)cc12` [Compound 405] displayed an EC50 at GLP-1R [2] of 39.9 nM.
As to `Cc1n[nH]c2c(F)cc(NC(=O)c3cc4c(nc(CN5CC=C(c6cccc(OCc7ccc(Cl)cn7)n6)CC5)n4C[C@@H]4CCO4)s3)cc12` [Compound 406], the EC50 on GLP-1R [2] was 99.2 nM.
At GLP-1R [2], `CCn1cncc1Cn1c(CN2CC=C(c3cccc4c3OC(C)(c3ccc(Cl)cn3)O4)CC2)nc2cc(NC(=O)c3cc(F)c4[nH]nc(C)c4c3)ccc21` (centres unmarked) [Compound 410] gave an EC50 of 0.31 nM.
With `CCn1cncc1Cn1c(Cc2c(F)cc(-c3cccc4c3O[C@](C)(c3ccc(Cl)cn3)O4)cc2F)nc2cc(NC(=O)c3cc(F)c4[nH]nc(C)c4c3)ccc21` [Compound 412], the response on GLP-1R [2] was half-maximal at 3.1 nM (EC50).
